Reference: ChEMBL document CHEMBL4052601, “Glycybridins A-K, Bioactive Phenolic Compounds from Glycyrrhiza glabra” (J Nat Prod, 2017)

Columns and labels:
[1] = molecular target: T1, Tyrosinase (Homo sapiens) (UniProt P14679); details: at 10 µM;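 further: tyrosinase of unspecified origin acting on L-tyrosine, compound preincubated with enzyme for 15 min before adding substrate, inhibition expressed versus control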
T1 sequence (whole entry): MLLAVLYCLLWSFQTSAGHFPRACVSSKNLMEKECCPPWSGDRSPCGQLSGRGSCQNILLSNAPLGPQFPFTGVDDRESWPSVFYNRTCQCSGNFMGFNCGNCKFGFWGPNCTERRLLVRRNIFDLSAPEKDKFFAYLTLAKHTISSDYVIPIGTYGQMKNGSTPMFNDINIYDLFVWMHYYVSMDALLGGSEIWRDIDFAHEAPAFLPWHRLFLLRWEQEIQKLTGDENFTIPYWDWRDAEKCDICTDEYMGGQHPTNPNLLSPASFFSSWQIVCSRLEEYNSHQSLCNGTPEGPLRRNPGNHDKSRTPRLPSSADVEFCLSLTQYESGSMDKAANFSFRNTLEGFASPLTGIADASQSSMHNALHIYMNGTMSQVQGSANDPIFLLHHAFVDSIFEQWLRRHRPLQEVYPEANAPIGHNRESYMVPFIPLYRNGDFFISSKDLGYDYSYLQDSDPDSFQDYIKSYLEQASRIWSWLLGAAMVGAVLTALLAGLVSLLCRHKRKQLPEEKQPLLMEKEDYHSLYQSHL
Description: Inhibition of tyrosinase (unknown origin) using L-tyrosine as substrate at 10 uM preincubated for 15 mins followed by substrate addition relative to control

RAW264.7 = assay: Antiinflammatory activity against mouse RAW264.7 cells assessed as inhibition of LPS-induced nitric oxide production at 10 uM after 24 hrs by Griess assay relative to control; format: functional; details: RAW264.7, 24 h
HepG2 = assay: Antiproliferative activity against human HepG2 cells at 10 uM after 24 hrs by MTS assay relative to control; format: functional; details: HepG2, 24 h
[2] = molecular target: T2, Tyrosine-protein phosphatase non-receptor type 1 (Homo sapiens) (UniProt P18031); details: at 10 µM;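 further: recombinant enzyme assay with pNPP substrate, inhibition read after 30 min versus untreated control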
T2 sequence (whole entry): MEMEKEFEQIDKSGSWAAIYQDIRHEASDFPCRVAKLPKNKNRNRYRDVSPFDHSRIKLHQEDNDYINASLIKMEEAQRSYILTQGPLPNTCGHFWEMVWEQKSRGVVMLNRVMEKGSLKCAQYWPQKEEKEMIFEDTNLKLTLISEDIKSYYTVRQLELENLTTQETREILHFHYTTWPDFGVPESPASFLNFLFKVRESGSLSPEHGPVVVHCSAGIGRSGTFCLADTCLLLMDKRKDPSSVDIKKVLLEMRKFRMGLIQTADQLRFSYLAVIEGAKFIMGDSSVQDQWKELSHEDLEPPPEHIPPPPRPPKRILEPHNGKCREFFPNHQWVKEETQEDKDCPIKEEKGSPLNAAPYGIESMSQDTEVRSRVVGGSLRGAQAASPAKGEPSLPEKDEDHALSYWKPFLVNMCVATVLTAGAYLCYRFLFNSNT
Description: Inhibition of recombinant human PTP1B using pNPP as substrate at 10 uM after 30 mins relative to control

Homo sapiens = assay: Inhibition of LPS-induced NF-kappaB (unknown origin) transactivation expressed in human SW480 cells at 10 uM administered 1 hr after LPS stimulation measured after 6 hrs by luciferase reporter gene assay relative to control; format: cell-based
MCF7 = assay: Antiproliferative activity against human MCF7 cells at 10 uM after 24 hrs by MTS assay relative to control; format: functional; details: MCF7, 24 h
A549 = assay: Antiproliferative activity against human A549 cells at 10 uM after 24 hrs by MTS assay relative to control; format: functional; details: A549, 24 h
SW480 = assay: Antiproliferative activity against human SW480 cells at 10 uM after 24 hrs by MTS assay relative to control; format: functional; details: SW480, 24 h

SMILES	inhibition [1] [%]	inhibition at 10 µM (RAW264.7) [%]	inhibition at 10 µM (HepG2) [%]	inhibition [2] [%]	inhibition (Homo sapiens) [%]	inhibition at 10 µM (MCF7) [%]	inhibition at 10 µM (A549) [%]	inhibition at 10 µM (SW480) [%]
CC(C)=CCc1cc(C[C@@H](O)C(=O)c2ccc(O)cc2O)ccc1O	10.3	7.1	7.2	0.2	23	29.5	6.1	4.2
CC1(C)C=Cc2cc([C@@H]3CC(=O)c4ccc5c(c4O3)C=CC(C)(C)O5)ccc2O1 [XAMBIOONA]	0	6.9	0	76.9	0	0	10.9	7.9
COc1ccc(-c2coc3cc(O)ccc3c2=O)cc1 [FORMONONETIN]	4.3	0	8.2	9.9	0	51.8	15.4	0
COc1ccc2c(c1)O[C@H]1c3ccc(O)c(CC=C(C)C)c3OC[C@@H]21 [LICOAGROCARPIN]	0	16.7	8.3	4.9	0	52.9	37.3	18.2
CC1(C)C=Cc2c(cc(O)c3c2OCC(c2ccc(O)cc2O)C3=O)O1 (stereo unspecified)	35.6	1.9	37.6	58.5	0.1	12.7	4.3	29.6
CC1(C)C=Cc2c(ccc(-c3coc4cc(O)ccc4c3=O)c2O)O1 [GLABRONE]	9.7	42	29.2	0.3	6.4	36.1	0	45.4
CC(C)=CCc1cc([C@H]2Oc3cc(O)ccc3C[C@H]2O)ccc1O	14.3	1.8	7.3	10.4	9.8	18.6	13.3	32.7
CC(C)=CCc1c(O)ccc([C@@H]2COc3c(ccc(O)c3CC=C(C)C)C2)c1O [KANZONOL X]	7.9	15.7	14.9	15.7	32.9	95.9	81.6	74.4
CC1(C)C=Cc2c(ccc3cc(-c4ccc(O)cc4O)c(=O)oc23)O1 [KANZONOL W]	7.6	18.9	32.7	16.2	4.5	47.3	3.7	0
O=C1C[C@@H](c2ccc(O)cc2)Oc2cc(O)ccc21 [LIQUIRTIGENIN]	4.6	2.8	7	9.8	0	7.7	0	7.5
CC1(C)C=Cc2c(cc(O)c3c(=O)c(-c4ccc(O)cc4)coc23)O1 [DERRONE]	11	0	23.7	21	30.8	13.6	0	0
CC(C)=CCc1cc(C[C@@H](O)C(=O)c2ccc(O)c(CC=C(C)C)c2O)ccc1O	0	4.1	75.2	37.7	33.4	82.1	7.5	72
